Source: patent US11827690B2, “ApoC-II mimetic peptides” (THE UNITED STATES OF AMERICA, as represented by the …, priority 2017, dated 2023)
“Also recorded” adds a separate entry of the source.

Experiments:
[1] = tested on: VLDL isolated from human plasma; assay: ApoC-III displacement study in VLDL isolated from human plasma; assay type: binding
Method: VLDL or chylomicrons isolated from human plasma were incubated with an apoC-II mimetic peptide for 1 hour at 37° C. and washed 3 times with PBS using spin filter with 100 kDa cutoff membrane. […] ApoC-I, apoC-II, apoC-III, and apoE bands were identified by their corresponding size.

wild-type mice = assay: serum TG of wild-type mice after Intralipid injection with or without LPL inhibitor Triton WR1339; assay type: in vivo
Method: In some experiments, each animal received 20% Intralipid (FDA approved, Fresenius Kabi, Uppsala, Sweden) in a single dose either by oral gavage (using special sterile single-use non-toxic animal feeding needles) in a dose 10-20 μL/gram body weight (B.W.) (Tuzcu et al. Drug Chem Toxicol 37: 261-267, 2014; Kusminski et al. Nature Medicine 18: 1539-1549, 2012), or by intraperitoneal injection in a single bolus of 0.1-1.0 mL (Mahadero et al. American J Surgery 164: 45-50, 1992), or by intragastric administration of a dietetic commercially-available liquid oil (food grade vegetable, corn, soy or olive oil) in a single dose 10-20 μL/gram body weight. These oils were a source of TG—when absorbed TG tends to be broken down within 3 h (peak in 30 min) (Kritchevsky Nutritional Biochemistry 6:172-178, 1995). Blood samples (20-30 μL) were obtained from the retro-orbital plexus at time points: −1 h, 0 h, 1 h, 3 h, 6 h and 24 h for measurements of lipids. Mice were returned to metabolic cages after the 6 h time point where the food was put back. Once the study was completed (after 24 hours from the fat administration), mice were euthanized and organs collected.
The ability of apolipoprotein mimetic peptides to normalize hypertriglyceridemia in mice treated with an LPL inhibitor, Tyloxapol, in presence of high TG provided by 20% Intralipid, was assessed.
Mice were fasted overnight (approximately 12 hours) before the study and 6 hours during the study, the next day. The apo mimetic peptides were synthetically produced and free of biological contamination (not available as FDA approved compounds/treatment). Peptides were produced and used in sterile conditions and filtered by 0.2 nm filter before injections in a single dose 1-5 μmol/kg B.W. either S.C. or I.P. or I.V. (in a sterile, pharmaceutical grade PBS solution at a volume ≤200 μL). Next, 10% Tyloxapol (Triton WR-1339, T-0307, Sigma-Aldrich) was injected I.V. in a single dose of 5 μL/gram B.W., as described earlier (Zhang Y. L. et al., J Biol Chem. 279: 19362-19374, 2004; Abe C. et al., J. Nutr. 137: 345-350, 2007). […] Finally, each animal received 20% Intralipid (FDA approved, Fresenius Kabi, Uppsala, Sweden) in a single dose either by oral gavage (using special sterile single-use non-toxic animal feeding needles)—in a dose 10-20 μL/gram B.W. (Tuzcu K. et al., Drug Chem Toxicol., 37: 261-267, 2014, Kusminski C. et al., Nature Medicine. 18: 1539-1549, 2012), or by intraperitoneal injection—in a single bolus of 0.1-1.0 mL (Mahadero G. et al., American J Surgery. 164: 45-50, 1992). Blood samples (20-30 μL) were obtained from the retro-orbital plexus at time points: −1 h, 0 h, 1 h, 3 h, 6 h and 24 h for measurements of lipids. Mice were returned to metabolic cages after the 6 h time point where the food was put back. Once the study was completed (after 24 hours from the Intralipid administration), mice were euthanized and organs collected.

[2] = molecular target: T1, LPL inhibited by apoC-III (Bos taurus, UniProt P11151); assay: LPL activation assay with high TG human plasma as substrate and recombinant apoC-III as an inhibitor; assay type: biochemical; settings: for effect on inhibition of LPL by apoC-III: high TG human plasma substrate
T1 sequence (P11151 29-478): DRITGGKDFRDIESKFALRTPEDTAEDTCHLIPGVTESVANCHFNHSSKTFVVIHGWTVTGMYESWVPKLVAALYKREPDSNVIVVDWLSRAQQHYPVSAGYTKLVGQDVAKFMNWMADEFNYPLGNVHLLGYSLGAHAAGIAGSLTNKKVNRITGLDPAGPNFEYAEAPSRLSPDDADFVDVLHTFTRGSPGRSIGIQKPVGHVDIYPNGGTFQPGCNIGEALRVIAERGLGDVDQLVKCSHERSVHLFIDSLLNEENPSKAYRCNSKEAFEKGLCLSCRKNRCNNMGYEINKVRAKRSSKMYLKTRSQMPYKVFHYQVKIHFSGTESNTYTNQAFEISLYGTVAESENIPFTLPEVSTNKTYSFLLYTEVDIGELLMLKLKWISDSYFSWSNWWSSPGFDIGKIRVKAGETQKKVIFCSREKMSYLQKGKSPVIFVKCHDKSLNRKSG
Method: (§1) LPL activity assay: 10 μL of Intralipid, human plasma sample, or mouse plasma sample was added in each well using repeater pipette. 10 μL (or 15 μL in the wells with no LPL control) of PBS and 10 μL of 1% BSA was added in each well using repeater pipette. 10 μL of peptides were added to corresponding wells in vertical triplicates (lowest concentration is on a left, highest is on the right). The plate was spun down at 1000 RPM for 10 seconds to mix and to remove the solutions from the wall of each well. The plate was put on ice and 5 μL of LPL was added using repeater pipette. The plate was spun down again at 1000 RPM for 10 seconds. The plate was covered and put back on ice for an incubation of 30 min. The plate was then moved to 37° C. and incubated for 1 hour.
(§2) Free fatty acids (NEFA) assay: 45 μL of 5 nmoL standard and 0 nmoL control (0.2% BSA) were added to corresponding wells. 225 μL of reagent A was added in each well using the reagent tray and 12-channel pipette. The plate was incubated for 10 min before 75 μL of reagent B was added to each well using the reagent tray and 12-channel pipette. The plate was not covered due to the high volume. The absorbance at 550 nm and 660 nm was measured.
LPL assay was performed using Intralipid, high TG human plasma (1:50 dilution), or apoC-III transgenic mouse plasma (1:50 dilution). When Intralipid was used as a substrate, 25 or 50 μM recombinant ApoC-III was added as an inhibitor. When the high TG human plasma was used as a substrate, 25 or 50 μM recombinant ApoC-III was added as an inhibitor with or without pre-incubation at 37° C. for 1 hour. An apoC-II mimetic peptide was added at various concentrations.

[3] = molecular target: T1, LPL inhibited by apoC-III; assay: LPL activation assay using apoC-III transgenic mice plasma as substrate; assay type: biochemical; parameters: host or cells: apoC-III comes with the plasma of apoC-III transgenic C57Bl/6 mice; settings: all three transgenic mice plasma samples, FIG. 33
Method: as §1, §2
LPL assay was performed using Intralipid, high TG human plasma (1:50 dilution), or apoC-III transgenic mouse plasma (1:50 dilution). […]

LPL = molecular target: T2, LPL (Bos taurus, UniProt P11151); assay: addition of exogenous LPL to serum samples collected after IP injection with Intralipid; assay type: biochemical
T2 sequence (P11151 29-478): T1 sequence (P11151 29-478)

apoC-II displacement in VLDL ([1]; FIG. 49)	Sequence	affinity for the VLDL compared with the apolipoproteins [1]	apoC-III displacement in VLDL ([1]; SDS PAGE)	effect on inhibition of LPL by Triton (wild-type mice; FIG. 35B)	serum TG increase after Intralipid injection (wild-type mice; intraperitoneal peptide, presence or absence of Triton, FIG. 35B)	serum TG increase after Intralipid injection (wild-type mice; repeat-dose study, peptide IP 1 hour after Intralipid, 0.25 and 1 μmole/kg, FIG. 46B)	effect on inhibition of LPL by apoC-III [2]	effect on inhibition by elevated expression of apoC-III [3]	effect on inhibition by elevated expression of apoC-III ([3]; listed as ApoC-II-a)	lipoprotein particles from treated mice as substrates for LPL (LPL)	selectivity of apolipoprotein displacement ([1]; MALDI-TOF mass spectrometry, FIG. 29A)	binding of peptide to VLDL versus concentration ([1]; MALDI-TOF, FIG. 29B)	block of rise in serum TG after IP injection of Intralipid (wild-type mice; co-injected with the LPL inhibitor Triton WR1339)	influence of pre-incubation of apoC-III with human plasma on peptide effect [2]	concentration at which it overcame the inhibitory effect of apoC-III ([2]; 50 μM apoC-III, FIG. 32)	concentration at which it started to affect lipolysis ([2]; 50 μM apoC-III, FIG. 32) [µM]	effect on inhibition of LPL by apoC-III ([2]; listed as ApoC-II-a)
also displaced	DYLKEVFEKLRDLYEKFTPAVSTYTGIFTDQVLSVLKGEE [Delta6PV]	higher affinity for the VLDL than the apolipoproteins	displaced apoC-III in a dose-dependent matter	reversed the inhibition of LPL by Triton	the TG increase was significantly reduced	the TG increase was significantly reduced	overcomes the inhibition of apoC-III										
	DWLKAFYDKVAEKLKEAFPAMSTYTGIFTDQVLSVLKGEE (listed as Homo sapiens) [apoC-II-a, excluded from the claimed peptides]	higher affinity for the VLDL than the apolipoproteins					further facilitated lipolysis	overcame the inhibitory effect of elevated expression of apoC-III	overcomes the inhibitory effect of elevated expression of apoC-III	better substrates for LPL	selectively replaced apoC-III and apoC-I, but not apoC-II; also recorded: selectively displaces apoC-III and apoC-I but not apoC-II	almost proportional to its concentration; also recorded: approximately proportional to its concentration	about 50%	did not change the effect	about 0.2 μM	0.01	overcomes the inhibition by apoC-III
